Test results: patent publication US12551475B2, “Methods and compositions for treating RNA viral infections” (Model Medicines, Inc., priority 2020, dated 2026)
Where two headings read alike, the source gives them in different places.

Tests used:
[1] = 30 mg/kg and 60 mg/kg oral gavage; cited from earlier work
[2] = monkey, IV; cited from earlier work
[3] = Uninfected host cell cytotoxicity counter screen; assay type: cell-based, human; details: human, uninfected HeLa-ACE2 cells; uninfected HeLa-ACE2, 24 h
Protocol: Compounds were acoustically transferred into 1,536-well clear plates (Greiner Part. No. 789091). HeLa-ACE2 cells were maintained as described for the infection assay and seeded in the assay-ready plates at 400 cells/well in DMEM with 2% FBS and plates were incubated for 24 hours at 37 5% CO2. To assess cell viability, the Image-iT DEAD green reagent (Thermo Fisher) was used according to manufacturer instructions. Cells were fixed with 4% paraformaldehyde, and counterstained with DAPI. Fixed cells were imaged using the ImageXpress Micro Confocal High-Content Imaging System (Molecular Devices) with a 10× objective, and total live cells per well quantified in the acquired images using the Live Dead Application Module (MetaXpress).
Image analysis was carried out with MetaXpress (version 6.5.4.532). Primary in vitro screen and the host cell cytotoxicity counter screen data were uploaded to Genedata Screener, Version 16.0.3-Standard. Data were normalized to neutral (DMSO) […] inhibitor controls (2.5 μM remdesivir for antiviral effect and 10 μM puromycin for infected host cell toxicity). For the uninfected host cell cytotoxicity counter screen 40 μM puromycin (Sigma) was used as the positive control. For dose response experiments compounds were tested in technical triplicates on different assay plates and dose curves were fitted with the four parameter Hill Equation. Technical replicate data were analyzed using median condensing.

[4] = dog, IV; cited from earlier work
SARS-CoV-2 [5] = tested on: SARS-CoV-2
[6] = target: T1, cytochrome P450 (CYP) 3A4 (Homo sapiens, UniProt P08684); details: human liver microsomes; cited from earlier work
T1 construct: from tissue; host or cells: human liver microsomes

[7] = intravenously, cited from earlier work
SARS-CoV-2 [8] = assay: microbe, parasite or virus in culture
Vero E6 cells = details: cited from earlier work
[9] = mouse, IV; cited from earlier work
SARS-CoV-2 [10] = details: cited from earlier work
[11] = i.v., 28 day, dosed daily; cited from earlier work
SARS-CoV-2 [12] = details: read-out: CPE EC50; cited from earlier work
[13] = in vivo; cited from earlier work
HeLa-ACE2 cells = details: Bakowski et al, 2020; cited from earlier work
SARS-CoV-2 [14] = details: cited from earlier work; remark: listed apart in the source

T1 sequence (P08684 whole entry): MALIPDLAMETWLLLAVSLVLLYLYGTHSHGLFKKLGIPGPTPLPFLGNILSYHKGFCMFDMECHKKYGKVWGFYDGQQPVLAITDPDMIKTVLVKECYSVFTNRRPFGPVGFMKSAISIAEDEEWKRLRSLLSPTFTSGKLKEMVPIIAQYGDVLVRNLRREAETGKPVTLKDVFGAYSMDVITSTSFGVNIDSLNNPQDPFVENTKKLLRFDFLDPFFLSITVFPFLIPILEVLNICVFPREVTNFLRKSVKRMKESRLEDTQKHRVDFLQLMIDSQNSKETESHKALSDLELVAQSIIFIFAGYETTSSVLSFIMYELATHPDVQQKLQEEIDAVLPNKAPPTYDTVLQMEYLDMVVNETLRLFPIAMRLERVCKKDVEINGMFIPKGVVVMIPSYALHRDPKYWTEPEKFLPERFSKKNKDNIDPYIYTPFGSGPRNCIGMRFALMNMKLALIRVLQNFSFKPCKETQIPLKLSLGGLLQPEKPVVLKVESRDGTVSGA

Structure (SMILES)	tolerability (in words) [1]	systemic clearance (CL) [2] [mL/min/kg]	CC50 at 24 h [3] [nM]	systemic clearance (CL) [4] [mL/min/kg]	activity in the HeLa-ACE2 cell-based SARS-CoV-2 assay (in words) (SARS-CoV-2 [5])	Hill coefficient (Nh) (SARS-CoV-2 [5]; slope of the dose response curve)	enzyme mainly metabolizing the drug [6]	safe and well tolerated clinical dose, no DLTs observed ([7]; once-weekly) [mg/m2]	safe and well tolerated clinical dose, no DLTs observed ([7]; twice weekly) [mg/m2]	EC50 (SARS-CoV-2 [8]; Severe acute respiratory syndrome coronavirus 2, HeLa-ACE2, 24 h) [µM]	EC50 (SARS-CoV-2 [8]; Severe acute respiratory syndrome coronavirus 2, HeLa-ACE2, CoV-2/HeLa-ACE2 assay, unit uM) [µM]	CC50 (Vero E6 cells) [nM]	systemic clearance (CL) [9] [mL/min/kg]	IC50 (SARS-CoV-2 [10]) [nM]	STD10 [11] [mg/kg/day]	EC50 (SARS-CoV-2 [12]) [nM]	half-life (t 1/2) [13]	CC50 (HeLa-ACE2 cells) [nM]	synergy score with remdesivir against SARS-CoV-2 (SARS-CoV-2 [14]; Bakowski et al, 2020)	EC50 (SARS-CoV-2 [14]; ReFRAME screen, same methods (Bakowski et al, 2020)) [nM]
CNCc1ccc(-c2cc(-c3nc(-c4ccc(S(=O)(=O)C(C)C)cc4)cnc3N)on2)cc1 [Berzosertib]	no adverse effects or toxicity	29	3140	13	demonstrated activity	1.485	cytochrome P450 (CYP) 3A4	480	240	0.114	0.114	11200	82	< 25	30	710	about 17 hours	–	–	–
Nc1nc(Nc2ccc3c(c2)CC[C@@H](N2CCCC2)CC3)nn1-c1cc2c(nn1)-c1ccccc1CCC2 [R-428]	–	–	–	–	–	–	–	–	–	–	–	–	–	–	–	–	–	> 40000	7.22	2880
